Target: Acetylcholinesterase (Homo sapiens, UniProt P22303)
Experiment: Concentration required to inhibit acetylcholinesterase isolated from human erythrocytes

Sequence of Acetylcholinesterase (P22303 whole entry): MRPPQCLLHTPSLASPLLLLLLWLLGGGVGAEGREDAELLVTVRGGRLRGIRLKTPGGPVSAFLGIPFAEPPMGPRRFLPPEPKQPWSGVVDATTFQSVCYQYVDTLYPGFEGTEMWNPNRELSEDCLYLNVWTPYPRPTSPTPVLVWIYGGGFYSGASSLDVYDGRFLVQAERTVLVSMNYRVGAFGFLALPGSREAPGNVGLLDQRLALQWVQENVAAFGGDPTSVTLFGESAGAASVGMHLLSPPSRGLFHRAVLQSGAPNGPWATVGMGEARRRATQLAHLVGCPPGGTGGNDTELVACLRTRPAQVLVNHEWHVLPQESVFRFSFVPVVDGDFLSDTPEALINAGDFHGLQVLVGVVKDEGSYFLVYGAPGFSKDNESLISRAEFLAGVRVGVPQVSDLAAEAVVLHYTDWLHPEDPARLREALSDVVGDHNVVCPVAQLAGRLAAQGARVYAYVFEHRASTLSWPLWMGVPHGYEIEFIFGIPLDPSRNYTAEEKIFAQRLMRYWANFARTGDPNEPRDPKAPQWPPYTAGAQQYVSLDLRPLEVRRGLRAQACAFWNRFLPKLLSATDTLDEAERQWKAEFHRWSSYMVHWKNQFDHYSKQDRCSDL

| SMILES | IC50 [nM] |
| --- | --- |
| CCCCCCNC(=O)Oc1ccc2c(c1)[C@]1(C)CCN(CC)[C@@H]1C2 | 20 |
| CCCCCCNC(=O)Oc1ccc2c(c1)[C@@]1(C)CCN(CC)[C@H]1C2 | 233 |

Reference: ChEMBL document CHEMBL1151555, “Total synthesis of an optically active 8-carba-physostigmine analog: a potent acetylcholinesterase inhibitor” (Bioorg Med Chem Lett, 1991)
